Reference: patent US5220064A, “Substituted 4'-hydroxyphenylacetic acid derivatives having antiinflammatory and analgesic activity” (Warner-Lambert Company, priority 1989, dated 1993)

What follows are molecules tested on mice (assay: acetic acid-induced stretching/writhing test in mice (based on Koster et al.)). Details: Mus musculus, sc; subcutaneous, 30 minutes before peritoneal acetic acid (100 mg/kg); mice fasted 24 hours; 15 minute observation; read-out: ED50 (amount producing the desired inhibition of stretching or "writhing" in 50 percent of a population).
Format: in vivo
Source text: Illustrative examples of the activity for use as described above for the novel compounds of the present invention are shown as the compound of the noted examples described in the following material when administered in a test based on that of Koster et al. [Fed. Proc., Vol. 18 (1959), p. 412] in which the peritoneal injection of acetic acid to mice provokes repeated stretching and twisting movements which persist for more than six hours. Analgesics prevent or suppress these syndromes which are considered to be an exteriorization of a diffuse abdominal pain. A 1% solution of acetic acid in water is used at a dose of 0.01 ml/g or 100 mg/kg of acetic acid to release the syndrome.
The compound to be tested is subcutaneously administered 30 minutes before the acetic acid injection and the mice are fasted 24 hours before the start of the test. The stretching for the mice is observed and totaled for each mouse in a 15 minute observation period starting just after the acetic acid injection. The results are expressed as mg/kg which amount produces the desired inhibition of stretching or "writhing" in 50 percent of a population.

Row | SMILES | ED50 [mg/kg]
1 | CCCCCCCCNC(=O)Cc1ccc(O)c(Cl)c1 [Example 1, Benzeneacetamide, 3-Chloro-4-hydroxy-N-octyl-] | 6.1
2 | CCCCCCCCNC(=O)Cc1ccc(O)c(F)c1 [Example 3, Benzeneacetamide, 3-Fluoro-4-hydroxy-N-octyl-] | 3.2
3 | CCCCCCCCNC(=O)Cc1ccc(O)c(Br)c1 [Example 2, Benzeneacetamide, 3-Bromo-4-hydroxy-N-octyl-] | 2.5
